According to ChEMBL document CHEMBL1795293, “Novel pentamidine derivatives: synthesis, anti-tumor properties and polynucleotide-binding activities” (Eur J Med Chem, 2011):
Activity calls are given as the source filed them. No cut-off for these calls is given here.

Assays:
MCF7 = assay: Cytotoxicity against human MCF7 cells after 72 hrs by MTT assay; type: functional, cell-based; details: MCF7, 72 h
HEp-2 = assay: Cytotoxicity against human Hep2 cells after 72 hrs by MTT assay; type: functional, cell-based; details: HEp-2, 72 h
SW-620 = assay: Cytotoxicity against human SW620 cells after 72 hrs by MTT assay; type: functional, cell-based; details: SW-620, 72 h
MIA PaCa-2 = assay: Cytotoxicity against human MIAPaCa2 cells after 72 hrs by MTT assay; type: functional, cell-based; details: MIA PaCa-2, 72 h
Nucleic Acid [1] = assay: Stabilization of double helix calf thymus DNA by spectroscopy; type: nucleic-acid assay; details: Bos taurus
HeLa = assay: Cytotoxicity against human HeLa cells after 72 hrs by MTT assay; type: functional, cell-based
Nucleic Acid [2] = assay: Binding affinity to calf thymus DNA assessed as change in melting temperature at 0.3 ratio compound/polynucleotide by UV-VIS spectral study; type: nucleic-acid assay; details: Bos taurus
Nucleic Acid [3] = assay: Binding affinity to Poly A-Poly U RNA measured at 303 nm wavelength at < 0.3 compound to polynucleotide ratio by circular dichroism spectroscopy; type: nucleic-acid assay
Nucleic Acid [4] = assay: Binding affinity to Poly dA-Poly dT DNA assessed as change in melting temperature at 0.3 compound to polynucleotide ratio by UV-VIS spectral study; type: nucleic-acid assay
Nucleic Acid [5] = assay: Binding affinity to Poly dA-Poly dT DNA assessed as ratio of ethidium bromide /compound at which 50% of ethidium bromide fluorescence is quenched by displacement assay; type: nucleic-acid assay
HCT-116 = assay: Cytotoxicity against human HCT116 cells after 72 hrs by MTT assay; type: functional, cell-based; details: HCT-116, 72 h
Nucleic Acid [6] = assay: Binding affinity to Poly A-Poly U RNA measured at 300 to 330 nm wavelength at < 0.3 compound to polynucleotide ratio by circular dichroism spectroscopy; type: nucleic-acid assay
Nucleic Acid [7] = assay: Binding affinity to calf thymus DNA assessed as ratio of ethidium bromide /compound at which 50% of ethidium bromide fluorescence is quenched by displacement assay; type: nucleic-acid assay, Bos taurus
Nucleic Acid [8] = assay: Binding affinity to Poly A-Poly U RNA assessed as ratio of ethidium bromide /compound at which 50% of ethidium bromide fluorescence is quenched by displacement assay; type: nucleic-acid assay
Nucleic Acid [9] = assay: Binding affinity to Poly G-Poly C RNA assessed as ratio of ethidium bromide /compound at which 50% of ethidium bromide fluorescence is quenched by displacement assay; type: nucleic-acid assay
NCI-H460 = assay: Cytotoxicity against human H460 cells after 72 hrs by MTT assay; type: functional, cell-based; details: NCI-H460, 72 h
MOLT-4 = assay: Cytotoxicity against human MOLT4 cells after 72 hrs by MTT assay; type: functional, cell-based; details: MOLT-4, 72 h
Nucleic Acid [10] = assay: Binding affinity to Poly A-Poly U RNA assessed as change in melting temperature at 0.3 compound to polynucleotide ratio by UV-VIS spectral study; type: nucleic-acid assay
Nucleic Acid [11] = assay: Binding affinity to Poly dA-Poly dT DNA assessed as change in melting temperature at 0.5 compound to polynucleotide ratio by UV-VIS spectral study; type: nucleic-acid assay
Nucleic Acid [12] = assay: Binding affinity to Poly A-Poly U RNA assessed as change in melting temperature at 0.5 compound to polynucleotide ratio by UV-VIS spectral study; type: nucleic-acid assay
Nucleic Acid [13] = assay: Binding affinity to calf thymus DNA assessed as change in melting temperature at 0.5 compound to polynucleotide ratio by UV-VIS spectral study; type: nucleic-acid assay; details: Bos taurus
Nucleic Acid [14] = assay: Binding affinity to Poly A-Poly U RNA at 0.5 compound to polynucleotide ratio by circular dichroism spectroscopy; type: nucleic-acid assay
Nucleic Acid [15] = assay: Binding affinity to double strand calf thymus DNA measured at 300 to 330 nm wavelength at 0.3 compound to polynucleotide ratio by circular dichroism spectroscopy; type: nucleic-acid assay; details: Bos taurus
Nucleic Acid [16] = assay: Binding affinity to calf thymus DNA by UV-VIS spectral study; type: nucleic-acid assay; details: Bos taurus
Nucleic Acid [17] = assay: Binding affinity to double strand Poly dA-Poly dT DNA measured at 300 to 330 nm wavelength at > 0.5 compound to polynucleotide ratio by circular dichroism spectroscopy; type: nucleic-acid assay
Nucleic Acid [18] = assay: Binding affinity to Poly G-Poly C RNA at 0.5 compound to polynucleotide ratio by circular dichroism spectroscopy; type: nucleic-acid assay
Nucleic Acid [19] = assay: Binding affinity to Poly A-Poly U RNA measured at 290 nm wavelength at 0.1 compound to polynucleotide ratio by circular dichroism spectroscopy; type: nucleic-acid assay
Nucleic Acid [20] = assay: Binding affinity to Poly A-Poly U RNA measured at 326 nm wavelength at 0.7 compound to polynucleotide ratio by circular dichroism spectroscopy; type: nucleic-acid assay
Nucleic Acid [21] = assay: Binding affinity to double strand Poly dA-Poly dT DNA measured at 300 to 330 nm wavelength at 0.1 compound to polynucleotide ratio by circular dichroism spectroscopy; type: nucleic-acid assay
Nucleic Acid [22] = assay: Binding affinity to double strand calf thymus DNA measured at 300 to 330 nm wavelength at > 0.5 compound to polynucleotide ratio by circular dichroism spectroscopy; type: nucleic-acid assay; details: Bos taurus
Nucleic Acid [23] = assay: Binding affinity to double strand calf thymus DNA measured at 300 to 330 nm wavelength at 0.1 compound to polynucleotide ratio by circular dichroism spectroscopy; type: nucleic-acid assay; details: Bos taurus
Nucleic Acid [24] = assay: Binding affinity to Poly G-Poly C RNA at < 0.3 compound to polynucleotide ratio by circular dichroism spectroscopy; type: nucleic-acid assay
Nucleic Acid [25] = assay: Binding affinity to Poly G-Poly C RNA at 0.2-0.3 compound to polynucleotide ratio by circular dichroism spectroscopy; type: nucleic-acid assay
Nucleic Acid [26] = assay: Binding affinity to double strand Poly dA-Poly dT DNA measured at 300 to 330 nm wavelength at 0.3 compound to polynucleotide ratio by circular dichroism spectroscopy; type: nucleic-acid assay
Nucleic Acid [27] = assay: Binding affinity to Poly G-Poly C RNA at 0.1 compound to polynucleotide ratio by circular dichroism spectroscopy; type: nucleic-acid assay
Nucleic Acid [28] = assay: Binding affinity to Poly G-Poly C RNA at 0.7 compound to polynucleotide ratio by circular dichroism spectroscopy; type: nucleic-acid assay
Nucleic Acid [29] = assay: Binding affinity to Poly A-Poly U RNA measured at 299 nm wavelength at < 0.3 compound to polynucleotide ratio by circular dichroism spectroscopy; type: nucleic-acid assay

Structure (SMILES) | IC50 (MCF7) | IC50 (HEp-2) | IC50 (SW-620) | IC50 (MIA PaCa-2) | IC50 (HeLa) | ΔTm (Nucleic Acid [2]) | ΔTm (Nucleic Acid [4]) | IC50 (Nucleic Acid [5]) | IC50 (HCT-116) | Activity (Nucleic Acid [6]) | IC50 (Nucleic Acid [7]) | IC50 (Nucleic Acid [8]) | IC50 (Nucleic Acid [9]) | IC50 (NCI-H460) | IC50 (MOLT-4) | ΔTm (Nucleic Acid [10]) | ΔTm (Nucleic Acid [11]) | ΔTm (Nucleic Acid [12]) | ΔTm (Nucleic Acid [13]) | also measured
CC(C)NC(=N)c1ccc(NC(=O)c2ccco2)cc1 | > 100 µM | > 100 µM | > 100 µM | > 100 µM | 60 µM | – | – | – | – | – | – | – | – | – | – | – | – | – | – | Activity (Nucleic Acid [1]): inactive
Cl.Cl.N=C(N)c1ccc(NC(=O)c2cccc(C(=O)Nc3ccc(C(=N)N)cc3)n2)cc1 | > 100 µM | 47 µM | > 100 µM | 13 µM | 18 µM | 6.7 °C | 20.4 °C | 1.6 molar ratio | > 100 µM | Active | 0.3 molar ratio | 0.47 molar ratio | 0.25 molar ratio | 19 µM | > 100 µM | 1 °C | – | – | – | Activity (Nucleic Acid [3]): Active
N=C(N)c1ccc(NC(=O)c2ccco2)cc1 | 33 µM | > 100 µM | > 100 µM | > 100 µM | > 100 µM | – | – | – | – | – | – | – | – | – | – | – | – | – | – | Activity (Nucleic Acid [1]): inactive
N#Cc1ccc(NC(=O)c2ccco2)cc1 | 32 µM | > 100 µM | > 100 µM | > 100 µM | 47 µM | – | – | – | – | – | – | – | – | – | – | – | – | – | – | –
CC(C)NC(=N)c1ccc(NC(=O)c2cccc(C(=O)Nc3ccc(C(=N)NC(C)C)cc3)n2)cc1.Cl.Cl | 32 µM | 30 µM | > 100 µM | > 100 µM | 53 µM | 8.5 °C | 24.1 °C | 1.37 molar ratio | > 100 µM | Active | 0.15 molar ratio | 0.17 molar ratio | 0.1 molar ratio | > 100 µM | > 100 µM | 3.1 °C | 25.5 °C | 3.7 °C | 10.3 °C | –
CC(C)NC(=N)c1ccc(NC(=O)c2ccc(C(=O)Nc3ccc(C(=N)NC(C)C)cc3)o2)cc1.Cl.Cl | 4 µM | 5 µM | 4 µM | 79 µM | 50 µM | 5.6 °C | 29.5 °C | 2.23 molar ratio | – | Active | 0.36 molar ratio | 0.03 molar ratio | 0.2 molar ratio | – | – | 4.5 °C | 31.7 °C | 20.1 °C | 6.6 °C | Activity (Nucleic Acid [14]): Active; Activity (Nucleic Acid [15]): inactive; Ks (Nucleic Acid [16]): 6.3 ×10⁴ /M; Activity (Nucleic Acid [17]): Active; Activity (Nucleic Acid [18]): Active; Activity (Nucleic Acid [19]): Active; Activity (Nucleic Acid [20]): Active; Activity (Nucleic Acid [21]): Active; Activity (Nucleic Acid [22]): Active; Activity (Nucleic Acid [23]): Active; Activity (Nucleic Acid [24]): Active; Activity (Nucleic Acid [25]): Active; Activity (Nucleic Acid [26]): inactive; Activity (Nucleic Acid [27]): Active; Activity (Nucleic Acid [28]): Active
Cl.Cl.N=C(N)c1ccc(NC(=O)c2ccc(C(=O)Nc3ccc(C(=N)N)cc3)o2)cc1 | 5 µM | 11 µM | > 100 µM | 53 µM | > 100 µM | 7.5 °C | 30.2 °C | 2.1 molar ratio | – | – | 0.8 molar ratio | 1 molar ratio | 0.36 molar ratio | – | – | 1.6 °C | – | – | – | –
CC(C)NC(=N)c1ccc(C(=O)Nc2cccc(NC(=O)c3ccc(C(=N)NC(C)C)cc3)n2)cc1.Cl.Cl | 24 µM | 38 µM | > 100 µM | > 100 µM | 56 µM | 13.1 °C | 30.5 °C | 2 molar ratio | > 100 µM | Active | 0.13 molar ratio | 0.07 molar ratio | 0.07 molar ratio | > 100 µM | > 100 µM | 3.7 °C | 32.2 °C | 5.7 °C | 14.5 °C | Activity (Nucleic Acid [29]): Active
N#Cc1ccc(NC(=O)c2ccc(C(=O)Nc3ccc(C#N)cc3)o2)cc1 | > 100 µM | > 100 µM | > 100 µM | > 100 µM | > 100 µM | – | – | – | – | – | – | – | – | – | – | – | – | – | – | –
Cl.Cl.N=C(N)c1ccc(C(=O)Nc2cccc(NC(=O)c3ccc(C(=N)N)cc3)n2)cc1 | 12 µM | 21 µM | > 100 µM | 13 µM | 19 µM | 13.5 °C | 29.3 °C | 1.7 molar ratio | 67 µM | Active | 0.19 molar ratio | 0.5 molar ratio | 0.07 molar ratio | 17 µM | > 100 µM | 1 °C | 30.9 °C | 18.7 °C | 15 °C | Activity (Nucleic Acid [29]): inactive
